One assay has as its target T1, squalene synthase (Rattus norvegicus, UniProt Q02769).
T1 construct: from tissue; host or cells: rat liver homogenate
T1 sequence (Q02769 1-416): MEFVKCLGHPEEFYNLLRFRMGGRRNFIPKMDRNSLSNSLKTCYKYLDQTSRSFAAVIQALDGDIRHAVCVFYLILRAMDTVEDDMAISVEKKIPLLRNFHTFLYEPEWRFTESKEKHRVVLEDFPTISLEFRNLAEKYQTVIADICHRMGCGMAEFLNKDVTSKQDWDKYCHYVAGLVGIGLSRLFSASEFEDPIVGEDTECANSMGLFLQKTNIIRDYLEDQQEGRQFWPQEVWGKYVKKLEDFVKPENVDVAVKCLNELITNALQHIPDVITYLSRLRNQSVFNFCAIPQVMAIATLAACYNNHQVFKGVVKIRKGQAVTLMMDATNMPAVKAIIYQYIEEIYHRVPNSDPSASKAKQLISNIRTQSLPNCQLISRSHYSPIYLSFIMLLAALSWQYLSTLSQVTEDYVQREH
The experiment in a line: Inhibition of squalene synthase in rat liver homogenate with [2-14C]farnesylpyrophosphate as substrate; [14C]squalene separated by TLC and counted by liquid scintillation. Format: biochemical. As to conditions: concentration giving 50% inhibition of [14C]squalene production in a 30 minute assay, read-out: IC₅₀. The procedure: Acta, Volume 877, 50-60 (1986) and modified to include measurement of cholesterol by high performance liquid chromatography (h.p.l.c.).
(§1) [¹⁴C] Squalene was separated from unreacted substrate on thin layer chromatography plates and determined by liquid scintillation counting. Inhibition of squalene synthase was quantified by incubating rat liver homogenate with various concentrations of the test compound in the presence of[2-¹⁴C] farnesylpyrophosphate. The concentration of compound giving 50% inhibition of [¹⁴C] squalene production in a 30 minute assay was taken as the IC₅₀ value. […] In practice, a series of agar plates, each having the test compound incorporated at a particular concentration, was inoculated with a standard culture of a clinically relevant pathogen, for example Candida albicans, and each plate was then incubated at 37 °C for 24 to 48 hours depending on the pathogen. The plates were then examined for the presence or absence of growth of the fungus and the appropriate MIC was noted. In this test the title compounds in Examples 19, Example 3 Compound 1 and Example 7 Compound 1 had MICs in the range of 1 to 31 µg/ml against a variety of clinically relevant pathogens.

In assay [1] the test system is a variety of clinically relevant pathogens. Kind of assay: In vitro antifungal activity: minimum inhibitory concentration (MIC) on agar plates containing the test compound. Format: cell-based. As to conditions: Candida albicans, read-out: MICs. The protocol:
as §1, with “The in vitro evaluation of the anti-fungal activity of compounds of the invention can be performed by determining the minimum inhibitory concentration (MIC) which is the concentration of the test compound in a suitable medium at which growth of a particular microorganism fails to occur. […] A. […] [¹⁴C] Squalene” for “[¹⁴C] Squalene”, “was noted.” for “was noted. In this test the title compounds in Examples 19, Example 3 Compound 1 and Example 7 Compound 1 had MICs in the range of 1 to 31 µg/ml against a variety of clinically relevant pathogens.”

≈ marks a conversion by molar mass, not a printed value. Counter-ions that a name gives are not always drawn.

For the compound `C=C(CC[C@]12O[C@H](CO)[C@@](O)(C(=O)O)[C@](C(=O)O)(O1)[C@H](OC(=O)CC[C@@H](C)C[C@@H](C)CC)[C@H]2O)[C@@H](O)[C@H](C)Cc1ccccc1` (relative stereo) [Example 25, [1S-[1α(4R*,5S*),3α,4β,5α,6α(4S*,6R*),7β]] 1-(4-Hydroxy-5-methyl-3-methylene-6-phenylhexyl)-3-hydroxymethyl-4,6,7-trihydroxy-2,8-dioxabicyclo[3.2.1]octane-4,5-dicarboxylic acid, 6-(4,6-dimethyloctanoate)], the IC50 on squalene synthase is below 100 nM. `C=C(CC[C@]12O[C@H](CO)[C@@](O)(C(=O)O)[C@](C(=O)O)(O1)[C@H](OC(=O)/C=C/[C@@H](C)C[C@@H](C)CC)[C@H]2O)[C@@H](O)[C@H](C)Cc1ccccc1` (relative stereo) [Example 11, [1S-[1α(4R*,5S*),3α,4β,5α,6α(2E,4R*,6R*),7β]] 1-(4-Hydroxy-5-methyl-3-methylene-6-phenylhexyl)-3-hydroxymethyl-4,6,7-trihydroxy-2,8-dioxabicyclo[3.2.1]octane-4,5-dicarboxylic acid, 6-(4,6-dimethyl-2-octenoate)]: the IC50 on squalene synthase was below 100 nM. `C=C(CC[C@]12OC[C@@](O)(C(=O)O)[C@](C(=O)O)(O1)[C@H](OC(=O)/C=C/[C@@H](C)C[C@@H](C)CC)[C@H]2O)[C@@H](OC(C)=O)[C@H](C)Cc1ccccc1` (relative stereo) [Example 3 Compound 1, [1S-[1α(4R*,5S*),4β,5α,6α(2E,4R*,6R*),7β]] 1-(4-Acetyloxy-5-methyl-3-methylene-6-phenylhexyl)-4,6,7-trihydroxy-2,8-dioxabicyclo [3.2.1]octane-4,5-dicarboxylic acid, 6-(4,6-dimethyl-2-octenoate)]: the IC50 at squalene synthase was below 100 nM. The MIC in assay [1] was 1 to 31 µg/mL (≈ 1.55 to 47.9 µM). With `C=C(CC[C@]12O[C@H](CO)[C@@](O)(C(=O)OC)[C@](C(=O)O)(O1)[C@H](OC(=O)/C=C/[C@@H](C)C[C@@H](C)CC)[C@H]2O)[C@@H](OC(C)=O)[C@H](C)Cc1ccccc1` (relative stereo) [Example 7 Compound 2, [1S-[1α(4R*,5S*),3α,4β,5α,6α(2E,4R*,6R*),7β]] 1-(4-acetyloxy-5-methyl-3-methylene-6-phenylhexyl)-3-hydroxymethyl-4,6,7-trihydroxy-2,8-dioxabicyclo[3.2.1]octane-4,5-dicarboxylic acid, 6-(4,6-dimethyl-2-octenoate),4-methyl ester], the IC50 at squalene synthase was below 100 nM. The same measure, in the same setting: to `C=C(CC[C@]12O[C@H](CO)[C@@](O)(C(=O)O)[C@](C(=O)O)(O1)[C@H](OC(=O)CC[C@@H](C)C[C@@H](C)CC)[C@H]2O)[C@@H](OC(C)=O)[C@H](C)Cc1ccccc1` (relative stereo) [Example 10, [1S-[1α(4R*,5S*),3α,4β,5α,6α(4S*,6R*),7β]] 1-(4-Acetyloxy-5-methyl-3-methylene-6-phenylhexyl)-3-hydroxymethyl-4,6,7-trihydroxy-2,8-dioxabicyclo[3.2.1]octane-4,5-dicarboxylic acid, 6-(4,6-dimethyloctanoate), dipotassium salt] belongs below 100 nM. Turning to `C=C(CC[C@]12O[C@H](CO)[C@@](O)(C(=O)O)[C@](C(=O)O)(O1)[C@H](OC(=O)/C=C/[C@@H](C)C[C@@H](C)CC)[C@H]2O)[C@@H](OC(C)=O)[C@H](C)Cc1ccccc1` (relative stereo) [Example 7 Compound 1, [1S-[1α(4R*,5S*),3α,4β,5α,6α(2E,4R*,6R*),7β]] 1-(4-Acetyloxy-5-methyl-3-methylene-6-phenylhexyl)-3-hydroxymethyl-4,6,7-trihydroxy-2,8-dioxabicyclo[3.2.1]octane-4,5-dicarboxylic acid, 6-(4,6-dimethyl-2-octenoate)], at squalene synthase, the IC50 was below 100 nM. In addition, in assay [1], the MIC lay in the range of 1 to 31 µg/mL (≈ 1.48 to 45.8 µM). For `C=C(CC[C@]12OC[C@@](O)(C(=O)OC)[C@](C(=O)O)(O1)[C@H](OC(=O)/C=C/[C@@H](C)C[C@@H](C)CC)[C@H]2O)[C@@H](OC(C)=O)[C@H](C)Cc1ccccc1` (relative stereo) [Example 3 Compound 2, [1S-[1α(4R*,5S*),4β,5α,6α(2E,4R*,6R*),7β]] 1-(4-acetyloxy-5-methyl-3-methylene-6-phenylhexyl)-4,6,7-trihydroxy-2,8-dioxabicyclo[3.2.1]octane-4,5-dicarboxylic acid, 6-(4,6-dimethyl-2-octenoate), 4-methyl ester], on squalene synthase, the IC50 was below 100 nM.

The values above are taken from patent EP0494622A1, “Bridged cyclic ketal derivatives” (priority 1991, dated 1992).
